System: H3K9me3 occupancy in promoter regions
Experiment: H3K9me3-ChIP sequencing of striatal tissue of YAC128 mice
Format: in vivo, mouse
Settings: for Fold(YACEi/YAC) H3K9me3 ChIP occupancy: APQ-treated YAC vs YAC mice striatum
Method: ChIP for H3K9me3 binding to DNA was performed using a CHIP assay kit (Santa Cruz, Dallas, TX) as described previously[21]^,[28]. Striatal tissues from WT, vehicle treated YAC128, and APQ-treated YAC128 mice were crossed-linked with 1% formaldehyde for 20 min at room temperature. Lysates were sonicated for 30 s six times using a Bioruptor (Diagenode Inc., Denville, NJ). After centrifugation, the supernatant was diluted in CHIP dilution buffer and incubated overnight at 4 °C with anti-H3K9me3 antibody. Immune complexes were recovered by the addition of 60 µl of salmon sperm DNA/protein A agarose-50% slurry and incubation at 4 °C for 2 h with rotation. Beads were pelleted and washed with low and high salt buffer followed by LiCl buffer (x3). Immune complexes were eluted by incubation with 500 µl of fresh elution buffer (1% SDS, 0.1 M NaHCO3) and 20 µl of 5 M NaCl. DNA was cleaned by the addition of 500 mM EDTA, 1 M Tris, and proteinase K at 66 °C for 4 h. The DNA solution was extracted with a phenol/chloroform/isoamyl alcohol mixture to remove protein contaminants, followed by precipitation with 100% ethanol. After precipitation, the pellet was washed with 70% ethanol and dissolved in 20 µl DW.
The Model-based Analysis of ChIP-Seq algorithm (MACS; v. 1.4.2) was used to identify regions of H3K9me3 enrichment with the default parameters. The peaks that pass a Poisson p values threshold of 0.1 were used for further analyses[28]^,[42]. In order to obtain reliable regions of enrichment, the regions detected in more than two samples were selected and aligned to define the consensus regions using DiffBind R package (v. 2.4.8)[43]. The reads in the consensus regions were counted and DESeq2 was applied to identify DMRs[44]. The DMRs were defined as p values of ≤.05 and only DMRs in promoter region (≤3 K from transcription start site) were selected.
Among the read peaks, a total of H3K9me3-enriched 71735 sites were commonly detected using MACS in WT, vehicle-treated YAC128, and APQ-treated YAC128 mice (using DiffBind R package). The reads were re-counted in the 71,735 sites (using DESeq2) and the H3K9me3-enriched sites in promoter region (≤3 K), with p values ≤.01 were selected. Then the H3K9me3-enriched sites with 1.5-fold higher in vehicle-treated YAC128 compared to WT and 1.5-fold lower in vehicle-treated YAC128 compared to APQ-treated YAC128 were finally selected.

SMILES: C=CCOc1cccc2nc(N3CCCC3)ccc12 [APQ, 5-allyloxy-2-(pyrrolidin-1-yl)quinoline]
- Fold(YACEi/YAC) (H3K9me3 ChIP peak chrX_13041660_13042117, 5730405O15Rik, Promoter (<=1kb)): -3.61
- Fold(YACEi/YAC) (H3K9me3 ChIP peak chrX_20364227_20364518, Rp2, Promoter (<=1kb)): -2.41
- Fold(YACEi/YAC) (H3K9me3 ChIP peak chrX_20656130_20656390, Uba1, Promoter (1-2kb)): -3.37
- Fold(YACEi/YAC) (H3K9me3 ChIP peak chrX_20953229_20953500, Elk1, Promoter (2-3kb)): -2.86
- Fold(YACEi/YAC) (H3K9me3 ChIP peak chrX_21482622_21482887, Agtr2, Promoter (1-2kb)): -3.76
- Fold(YACEi/YAC) (H3K9me3 ChIP peak chrX_51205773_51206072, Mbnl3, Promoter (<=1kb)): -4.38
- Fold(YACEi/YAC) (H3K9me3 ChIP peak chrX_52575414_52575585, A630012P03Rik, Promoter (<=1kb)): -2.24
- Fold(YACEi/YAC) (H3K9me3 ChIP peak chrX_53059727_53060393, C430049B03Rik, Promoter (2-3kb)): -2.78
- Fold(YACEi/YAC) (H3K9me3 ChIP peak chrX_55223440_55223928, Slxl1, Promoter (2-3kb)): -3.59
- Fold(YACEi/YAC) (H3K9me3 ChIP peak chrX_56214992_56215323, Gm773, Promoter (2-3kb)): -3.3
- Fold(YACEi/YAC) (H3K9me3 ChIP peak chrX_56345445_56345878, Zfp449, Promoter (<=1kb)): -3.19
- Fold(YACEi/YAC) (H3K9me3 ChIP peak chrX_56823574_56823879, Map7d3, Promoter (1-2kb)): -4.1
- Fold(YACEi/YAC) (H3K9me3 ChIP peak chrX_57211052_57211422, Cd40lg, Promoter (<=1kb)): -3.71
- Fold(YACEi/YAC) (H3K9me3 ChIP peak chrX_59587905_59588513, Fgf13, Promoter (2-3kb)): -4.9
- Fold(YACEi/YAC) (H3K9me3 ChIP peak chrX_62280858_62281466, 4933402E13Rik, Promoter (2-3kb)): -2.07
- Fold(YACEi/YAC) (H3K9me3 ChIP peak chrX_66814240_66814775, Mir470, Promoter (<=1kb)): -2.86
- Fold(YACEi/YAC) (H3K9me3 ChIP peak chrX_68010275_68010563, Mir509, Promoter (<=1kb)): -3.86
- Fold(YACEi/YAC) (H3K9me3 ChIP peak chrX_72985743_72986276, Zfp185, Promoter (1-2kb)): -2.91
- Fold(YACEi/YAC) (H3K9me3 ChIP peak chrX_74085947_74086310, Mecp2, Promoter (<=1kb)): -3.17
- Fold(YACEi/YAC) (H3K9me3 ChIP peak chrX_74254068_74254967, Emd, Promoter (<=1kb)): -2.9
- Fold(YACEi/YAC) (H3K9me3 ChIP peak chrX_100570155_100570557, Awat1, Promoter (1-2kb)): -2.24
- Fold(YACEi/YAC) (H3K9me3 ChIP peak chrX_100595739_100596091, P2ry4, Promoter (<=1kb)): -2.74
- Fold(YACEi/YAC) (H3K9me3 ChIP peak chrX_103413658_103414114, Tsx, Promoter (<=1kb)): -2.74
- Fold(YACEi/YAC) (H3K9me3 ChIP peak chrX_112599521_112600132, Zfp711, Promoter (<=1kb)): -3.8
- Fold(YACEi/YAC) (H3K9me3 ChIP peak chrX_113186036_113186428, Chm, Promoter (<=1kb)): -3.29
- Fold(YACEi/YAC) (H3K9me3 ChIP peak chrX_120315318_120315582, H2afb3, Promoter (2-3kb)): -3.46
- Fold(YACEi/YAC) (H3K9me3 ChIP peak chrX_120316028_120316808, H2afb3, Promoter (2-3kb)): -3.74
- Fold(YACEi/YAC) (H3K9me3 ChIP peak chrX_123101642_123102142, Cldn34c1, Promoter (1-2kb)): -3.6
- Fold(YACEi/YAC) (H3K9me3 ChIP peak chrX_134057860_134058275, Cstf2, Promoter (<=1kb)): -2.34
- Fold(YACEi/YAC) (H3K9me3 ChIP peak chrX_134162152_134162880, Xkrx, Promoter (<=1kb)): -2.18
- Fold(YACEi/YAC) (H3K9me3 ChIP peak chrX_134757222_134757422, Mir7093, Promoter (<=1kb)): -2.8
- Fold(YACEi/YAC) (H3K9me3 ChIP peak chrX_142294260_142294634, Gm5643, Promoter (2-3kb)): -2.73
- Fold(YACEi/YAC) (H3K9me3 ChIP peak chrX_142390366_142390928, Acsl4, Promoter (<=1kb)): -2.3
- Fold(YACEi/YAC) (H3K9me3 ChIP peak chrX_150550381_150550648, Mir3620, Promoter (2-3kb)): -2.24
- Fold(YACEi/YAC) (H3K9me3 ChIP peak chrX_152231158_152231359, Kdm5c, Promoter (1-2kb)): -3.16
- Fold(YACEi/YAC) (H3K9me3 ChIP peak chrX_152560343_152560717, Cldn34a, Promoter (2-3kb)): -4.14
- Fold(YACEi/YAC) (H3K9me3 ChIP peak chrX_152562252_152562894, Cldn34a, Promoter (<=1kb)): -2.56
- Fold(YACEi/YAC) (H3K9me3 ChIP peak chrX_153139912_153140739, Rragb, Promoter (<=1kb)): -2.81
- Fold(YACEi/YAC) (H3K9me3 ChIP peak chrX_158043367_158043944, Cnksr2, Promoter (<=1kb)): -2.16
- Fold(YACEi/YAC) (H3K9me3 ChIP peak chrX_159623974_159624438, Sh3kbp1, Promoter (2-3kb)): -3.85
- Fold(YACEi/YAC) (H3K9me3 ChIP peak chrX_159987543_159987820, Map3k15, Promoter (<=1kb)): -3.61
- Fold(YACEi/YAC) (H3K9me3 ChIP peak chrX_161115587_161115938, Scml2, Promoter (1-2kb)): -2.64
- Fold(YACEi/YAC) (H3K9me3 ChIP peak chrX_162760032_162760397, Rbbp7, Promoter (<=1kb)): -3.13
- Fold(YACEi/YAC) (H3K9me3 ChIP peak chrX_166236123_166236395, Gpm6b, Promoter (2-3kb)): -4.18
- Fold(YACEi/YAC) (H3K9me3 ChIP peak chrX_166439947_166441101, Ofd1, Promoter (<=1kb)): -2.41
- Fold(YACEi/YAC) (H3K9me3 ChIP peak chrX_166482184_166482633, Rab9, Promoter (2-3kb)): -2.11
- Fold(YACEi/YAC) (H3K9me3 ChIP peak chrX_167266371_167266766, Tlr8, Promoter (2-3kb)): -3.38
- Fold(YACEi/YAC) (H3K9me3 ChIP peak chrX_169321353_169321792, Hccs, Promoter (<=1kb)): -2.43
- Fold(YACEi/YAC) H3K9me3 ChIP occupancy (Hsf3, Promoter (<=1kb), chrX_96456335_96456839): -2.88
- Fold(YACEi/YAC) H3K9me3 ChIP occupancy (Mageb18, Promoter (1-2kb), chrX_92601496_92601857): -2.64
- Fold(YACEi/YAC) H3K9me3 ChIP occupancy (Prkx, Promoter (2-3kb), chrX_77798133_77798638): -2.48
- Fold(YACEi/YAC) H3K9me3 ChIP occupancy (Rbm3, Promoter (1-2kb), chrX_8147480_8147724): -2.71
- Fold(YACEi/YAC) H3K9me3 ChIP occupancy (Ssxb3, Promoter (2-3kb), chrX_8592171_8592736): -2.75
- Fold(YACEi/YAC) H3K9me3 ChIP occupancy (Suv39h1, Promoter (1-2kb), chrX_8076427_8076637): -2.8
- Fold(YACEi/YAC) H3K9me3 ChIP occupancy (Wdr45, Promoter (1-2kb), chrX_7720185_7720585): -3.17
